In ChEMBL document CHEMBL5543096 (J Med Chem, 2024):
Activity calls are given as the source filed them. The calls are words filed in the database; no cut-off is given here.

How the values were obtained:
[1] = target: T1, Muscarinic acetylcholine receptor M1 (Homo sapiens, UniProt P11229); assay: Binding affinity to human N-terminal eGFP-tagged CHRM1 expressed in HEK293T cells assessed as dissociation constant incubated for 10 mins by microscale thermophoresis assay; format: cell-based
T1 sequence (P11229 whole entry): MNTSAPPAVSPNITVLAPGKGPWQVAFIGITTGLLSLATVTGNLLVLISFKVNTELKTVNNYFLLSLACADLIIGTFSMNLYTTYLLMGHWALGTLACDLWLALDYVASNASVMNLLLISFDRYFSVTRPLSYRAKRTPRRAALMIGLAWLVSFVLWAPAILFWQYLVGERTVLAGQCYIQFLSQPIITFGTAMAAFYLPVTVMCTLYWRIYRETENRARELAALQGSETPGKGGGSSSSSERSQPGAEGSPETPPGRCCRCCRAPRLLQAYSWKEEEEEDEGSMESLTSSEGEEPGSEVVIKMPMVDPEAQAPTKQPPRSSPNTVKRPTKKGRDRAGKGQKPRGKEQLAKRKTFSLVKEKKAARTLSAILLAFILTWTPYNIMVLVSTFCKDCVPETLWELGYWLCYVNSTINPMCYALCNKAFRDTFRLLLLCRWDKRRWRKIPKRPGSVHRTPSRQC

[2] = Toxicity in chronic restraint stress-induced depressive C57BL/6J mouse model assessed as lung pathological change at 25 to 300 microg/kg,ip administrated on day 29 to 33 measured on day 36 by hematoxylin and eosin staining based microscopic analysis; format: tissue-based; settings: in vivo, 192 h, dose 25-300 µg/kg, time 8 day
[3] = test system: Mus musculus; assay: Antidepressant activity in chronic restraint stress-induced depressive C57BL/6J mouse model assessed as change in total distance traveled at 25 to 300 microg/kg,ip administrated on day 29 to 33 measured on day 34 by open field test; format: functional, organism-based; settings: dose 25-300 µg/kg, time 6.0 day
[4] = Cmax in Sprague-Dawley rat at 0.3 mg/kg,iv measured at 0.05 to 24 hrs of post administration by LC-MS/MS analysis; format: ADME, organism-based; settings: in vivo, time 0.05-24 hrs
[5] = test system: Mus musculus; assay: Antidepressant activity in Reserpine-induced depressive ICR mouse model assessed as decrease in immobility time at 300 microg/kg,ip administrated on day 4 to 8 measured on day 11 by tail suspension test; format: functional, organism-based; settings: dose 300.0 µg/kg, time 8.0 day
[6] = test system: Mus musculus; assay: Antidepressant activity in chronic restraint stress-induced depressive C57BL/6J mouse model assessed as reduction in immobility time at 100 to 300 microg/kg,ip administrated on day 29 to 33 measured on day 35 by forced swimming test; format: functional, organism-based; settings: dose 100-300 µg/kg, time 7.0 day
[7] = MRT (0 to last) in Sprague-Dawley rat at 0.3 mg/kg,ip measured at 0.05 to 24 hrs of post administration by LC-MS/MS analysis; format: ADME, organism-based; settings: in vivo, time 0.05-24 hrs
[8] = test system: Mus musculus; assay: Antidepressant activity in chronic restraint stress-induced depressive C57BL/6J mouse model assessed as increase in hippocampal BDNF protein expression at 0.3 mg/kg,ip administration measured after 8 hrs by Western blotting analysis; format: functional, organism-based
[9] = test system: Mus musculus; assay: Antidepressant activity in chronic restraint stress-induced depressive C57BL/6J mouse model assessed as increase in hippocampal BDNF mRNA expression at 0.3 mg/kg,ip administration measured after 24 hrs by qRT-PCR analysis; format: functional, organism-based
[10] = Bioavailability in Sprague-Dawley rat at 0.3 mg/kg,ip measured at 0.05 to 24 hrs of post administration by LC-MS/MS analysis; format: ADME, organism-based; settings: in vivo, time 0.05-24 hrs
[11] = Cmax in Sprague-Dawley rat at 0.3 mg/kg,ip measured at 0.05 to 24 hrs of post administration by LC-MS/MS analysis; format: ADME, organism-based; settings: in vivo, time 0.05-24 hrs
[12] = Toxicity in chronic restraint stress-induced depressive C57BL/6J mouse model assessed as decrease in percentage of spontaneous alternation at 1 mg/kg,ip administration by Y-maze test; format: organism-based; settings: in vivo
[13] = Tmax in Sprague-Dawley rat at 0.3 mg/kg,ip measured at 0.05 to 24 hrs of post administration by LC-MS/MS analysis; format: ADME, organism-based; settings: in vivo, time 0.05-24 hrs
[14] = AUC (0 to last) in Sprague-Dawley rat at 0.3 mg/kg,iv measured at 0.05 to 24 hrs of post administration by LC-MS/MS analysis; format: ADME, organism-based; settings: in vivo, time 0.05-24 hrs
[15] = Half life in Sprague-Dawley rat at 0.3 mg/kg,iv measured at 0.05 to 24 hrs of post administration by LC-MS/MS analysis; format: ADME, organism-based; settings: in vivo, time 0.05-24 hrs
[16] = MRT (0 to infinity) in Sprague-Dawley rat at 0.3 mg/kg,iv measured at 0.05 to 24 hrs of post administration by LC-MS/MS analysis; format: ADME, organism-based; settings: in vivo, time 0.05-24 hrs
[17] = AUC (0 to infinity) in Sprague-Dawley rat at 0.3 mg/kg,iv measured at 0.05 to 24 hrs of post administration by LC-MS/MS analysis; format: ADME, organism-based; settings: in vivo, time 0.05-24 hrs
[18] = Toxicity in chronic restraint stress-induced depressive C57BL/6J mouse model assessed as decrease in percentage of spontaneous alternation at 2 mg/kg,ip administration by Y-maze test; format: organism-based; settings: in vivo
[19] = test system: Mus musculus; assay: Antidepressant activity in Reserpine-induced depressive C57BL/6J mouse model assessed as decrease in immobility time at 0.1 to 1 mg/kg,ip administration measured after 30 mins by tail suspension test; format: functional, organism-based; settings: dose 0.1-1 mg/kg
[20] = Toxicity in chronic restraint stress-induced depressive C57BL/6J mouse model assessed as memory impairment at 4 mg/kg,ip administration and measured after 4 hrs by novel object recognition test; format: organism-based; settings: in vivo
[21] = MRT (0 to infinity) in Sprague-Dawley rat at 0.3 mg/kg,ip measured at 0.05 to 24 hrs of post administration by LC-MS/MS analysis; format: ADME, organism-based; settings: in vivo, time 0.05-24 hrs
[22] = Half life in Sprague-Dawley rat at 0.3 mg/kg,ip measured at 0.05 to 24 hrs of post administration by LC-MS/MS analysis; format: ADME, organism-based; settings: in vivo, time 0.05-24 hrs
[23] = test system: Mus musculus; assay: Antidepressant activity in Reserpine-induced depressive C57BL/6J mouse model assessed as decrease in immobility time at 0.1 to 0.3 mg/kg,ip administration measured after 7 days by tail suspension test; format: functional, organism-based; settings: dose 0.1-0.3 mg/kg, time 7.0 day
[24] = AUC (0 to last) in Sprague-Dawley rat at 0.3 mg/kg,ip measured at 0.05 to 24 hrs of post administration by LC-MS/MS analysis; format: ADME, organism-based; settings: in vivo, time 0.05-24 hrs
[25] = test system: Mus musculus; assay: Antidepressant activity in Reserpine-induced depressive ICR mouse model assessed as reduction in weight loss at 25 to 300 microg/kg,ip administrated on day 4 to 8 for 5 days; format: functional, organism-based; settings: dose 25-300 µg/kg, time 5.0 day
[26] = test system: Mus musculus; assay: Antidepressant activity in chronic restraint stress-induced depressive C57BL/6J mouse model assessed as increase in hippocampal BDNF protein expression at 0.3 mg/kg,ip administration measured after 24 hrs by Western blotting analysis; format: functional, organism-based
[27] = test system: Mus musculus; assay: Antidepressant activity in Reserpine-induced depressive ICR mouse model assessed as change in total distance traveled at 25 to 300 microg/kg,ip administrated on day 4 to 8 measured on day 9 by open field test; format: functional, organism-based; settings: dose 25-300 µg/kg, time 6.0 day

CN1[C@@H]2C[C@@H](OC(=O)[C@@](F)(CO)c3ccccc3)C[C@H]1[C@@H]1O[C@@H]12
Kd [1]: 336 µM | Activity [2]: Non-Toxic | Activity [3]: inactive | Cmax [4]: 230 ng/mL | Activity [5]: Active | Activity [6]: Active | MRT last [7]: 23 min | Activity [8]: Active | Activity [9]: inactive | bioavailability [10]: 35.5% | Cmax [11]: 41.9 ng/mL | Activity [12]: Non-Toxic | Tmax [13]: 12.5 min | AUC(0-t) [14]: 68.3 ng·h/mL | half-life [15]: 13.9 min | MRT inf [16]: 16.6 min | AUC(0-inf) [17]: 71.4 ng·h/mL | Activity [18]: Non-Toxic | Activity [19]: Active | Activity [20]: Toxic | MRT inf [21]: 27.3 min | half-life [22]: 16.6 min | Activity [23]: Active | AUC(0-t) [24]: 24.2 ng·h/mL | Activity [25]: Active | Activity [26]: inactive | Activity [27]: inactive
